Assay results reported in patent US20250288581A1, “BALIPODECT FOR TREATING OR PREVENTING AUTISM SPECTRUM DISORDERS” (TAKEDA PHARMACEUTICAL COMPANY LIMITED, priority 2018, published 2025).
Values joined by “and” are separate entries in the source; they are usually repeats but may differ in a detail not shown here. Identical values can stand only once. Like-named read-outs stand apart in the source and are kept apart here.

Experiments:
[1] = tested on: CDKL5 male hemizygous (-/Y) mice; assay: Hindpaw clasping (amplexus) test in CDKL5 knock-out mice model; format: in vivo; details: Compound A 5 mg/kg once per day oral gavage; vs CDKL5-/Y vehicle Group (2); FIG. 1
Procedure: A hind paw clasping test was performed in accordance with the procedures outlined by Wang et al., PNAS, vol. 109, no. 52, pp. 21516-21521 (2012). The test is done in a CDKL5 knock-out mice model. Mice are suspended for a two-minute trial. If clasping occurs for two seconds, the mouse is positive for CDKL5 deficiency, which is a neurological impairment. Wang et al. noted the CDKL5 mutant mice, but no quantification was made. Tang et al., J. Neurosci. 37(31):7420-7437 (2017) reported 17/18 (94%) hemi male mice were positive for the clasp phenotype.
(§1) Neurobehavioral assays were run when the mice were 8-10 weeks old. Tissues were collected at the end of the study to determine plasma and CNS PK.
If clasping occurs for two seconds, the mouse is positive for CDKL5 deficiency.

[2] = tested on: CDKL5 male hemizygous (-/Y) mice; assay: Open Field Test in CDKL5 knock-out mice model; format: in vivo; details: Compound A 5 mg/kg once per day oral; 15-minute trial; vs Groups (1) and (2); FIGS. 2A, 2B
Procedure: Spontaneous activity in an Open Field Arena is commonly used to assess general activity and ambulation. Mice were placed in the center of an arena for a fifteen-minute trial. The horizontal, vertical (rearing) and center activity are dependent variables.
FIG. 2A provides the results per minute from 0 to 15 minutes. FIG. 2B provides the results in five-minute intervals from 5 to 15 minutes.

[3] = Fraction unbound in plasma (fu, plasma); format: in vitro ADME; details: mouse
Excerpt: An in vitro profile of the PDE10A inhibitor was created for the CDKL5-/Y mice.

[4] = Plasma and brain exposure analysis after oral administration; format: in vivo; details: CDKL5-/Y mice; for concentration at 24 h: male, CDKL5-/Y, mouse, 5 mg/kg
Excerpt: as §1
In Table 1, “LLOQ” is the “lower limit of quantification”, and it is used to indicate the sensitivity of the assays. The numbers in plasma and brain columns are in ng/mL for plasma and ng/g for brain.

Male FMR1 knockout mice [5] = assay: Suppression of audiogenic seizures in FMR1 mouse model of Fragile X Syndrome; format: in vivo; details: 125 dB tone, vs vehicle Group (1); for Latency to seizure: 5-minute test, Compound A 5 mg/kg oral 150 min prior, MPEP 30 mg/kg i.p. 30 min prior, FIG. 5; for Percent seizure (seizure rates): Compound A 5 mg/kg oral, MPEP 30 mg/kg i.p., p<0.05, FIG. 6
Procedure: Male FMR1 knockout mice were bred at PsychoGenics. The mice were housed in OPTI-Mice ventilated cages for the duration of the study. All mice were acclimated to the environment, examined, handled, and weighed prior to initiation of the study to assure adequate health and suitability and to minimize non-specific stress associated with manipulation. During the course of the study, 12/12 light/dark cycles were maintained. The room temperature was maintained between 20 and 23° C. with a relative humidity maintained around 50%. Chow and water were provided ad libitum for the duration of the study. Each mouse was randomly assigned across treatment groups. The testing was performed during the animals' light cycle phase at 3 weeks of age.
Prior to audiogenic seizures, on test day, three groups of mice were pre-treated as follows: • Group (1): a vehicle orally administered at a dose volume of 10 mL/kg, 150 minutes prior to testing. • Group (2): 6-Methyl-2-(phenylethynyl) pyridine HCI (“MPEP”) (Sigma Aldrich; 30 mg/kg) was dissolved in sterile injectable saline and was administered by intraperitoneal injection at a dose volume of 10 mL/kg, 30 minutes prior to testing.
After the pre-treatments, the mice of Groups (1)-(3) were individually placed in a Plexiglas chamber and allowed to explore for 15 seconds. Then, they were exposed to a 125 dB tone. The observer was blinded to the pre-treatment conditions during the test. The mice were scored by the observer based on their response, latency, and seizure intensity during a 5-minute test as follows: • 0: no response • 1. wild running and jumping • 2: clonic seizures • 3: clonic-tonic seizures • 4: tonic seizures • 5: respiratory arrest
The following endpoints were reported. […] Latency to seizure (max 300 sec. if no seizure) • 2. Percent seizure • 3. Seizure score

Male FMR1 knockout mice [6] = assay: Open Field Test in FMR1 mouse model of FXS; format: in vivo; details: Compound A 5 mg/kg oral for two weeks; FIGS. 7 and 8
Procedure: Male FMR1 knockout (“KO”) mice and wild-type (“WT”) mice were bred at PsychoGenics. These mice were handled and chosen according to Example 5. However, the open field test started at 10 weeks of age, following 2 weeks of dosing. Three groups of mice were tested as follows: • Group (1): WT—Vehicle Group: a vehicle was orally administered for two weeks at a dose volume of 10 mL/kg. On testing days, the vehicle was administered 150 minutes prior to testing. • Group (2): FMR1 KO—Group: a vehicle was orally administered for two weeks at a dose volume of 10 mL/kg.
Open field chambers made of Plexiglas square chambers (27.3×27.3×20.3 cm; Med Associates Inc., St Albans, VT) surrounded by infrared photo beams (16×16×16) were used to measure horizontal and vertical activity of tested mice. The mice were brought into the chamber for at least 1 hour acclimation to the experimental room conditions prior to testing. Following 150 minutes of pre-treatment, the mice were placed in the center of the chamber for a 60-minute test period. After the 60-minutes, the mice were placed back into their home cage. During the test period, locomotor activity was measured in 5 minute intervals and total distance traveled was measured.

Male FMR1 knockout mice [7] = assay: Fear Conditioning test in FMR1 mouse model of FXS; format: in vivo
Procedure: After completion of the open field test described in Example 6, a Fear Conditioning test was conducted on the mice of Groups (1)-(3) in a fear conditioning system manufactured by Coulbourn Instruments (PA, USA).
On day 1, mice were placed in a conditioning chamber to habituate to the context for 2 minutes […]. A tone was presented for 20 seconds. 30 seconds after the CS ended, a foot shock (1 s, 0.5 mA) was presented (US). The pairing of the CS and US was repeated a total of 3 times, with an interval of 60 seconds between pairings. Mice remained in the conditioning chamber for another 60 seconds, and then returned to their home cage.
In the morning of day 2, mice were tested for contextual memory. Mice were placed in chambers for 5 minutes. In the afternoon of day 2, mice were tested for cued memory. Mice were placed in the conditioning chamber to habituate to the context for 2 minutes (Pre-Cue). Then, the CS was presented for a total of three times for 20 seconds, with 60 second inter-trial intervals. Freezing behavior, defined as the complete lack of movement, was captured automatically with a video system and Freeze View software (Coulbourn Instruments, PA, USA).

Row | fraction unbound [3] | concentration at 24 h ([4]; brain, po, oral 5 mg/kg once per day, 14 days, 24 hours after the last dose, LLOQ 0.5, read-out: Concentration in mouse brain, individual sample) [ng/g] | concentration at 24 h ([4]; brain, po, oral 5 mg/kg once per day, 14 days, 24 hours after the last dose, N=6-7, read-out: Concentration in mouse brain, Mean) [ng/g] | concentration at 24 h ([4]; plasma, oral, 24 hours after the last administration, read-out: plasma concentration in all mice vs target IC50 in vivo) [ng/mL] | concentration at 24 h ([4]; plasma, po, oral 5 mg/kg once per day, 14 days, 24 hours after the last dose, N=6-7, read-out: Concentration in mouse plasma, Mean) [ng/mL] | Compound | percentage of no clasping [1] | total distance traveled in the open field [2] | Concentration in mouse plasma, individual sample ([4]; oral 5 mg/kg once per day, 14 days, 24 hours after the last dose, LLOQ 0.1) | Concentration in mouse brain, individual sample ([4]; oral 5 mg/kg once per day, 14 days, 24 hours after the last dose, LLOQ 0.5) | Latency to seizure (Male FMR1 knockout mice [5]) | Percent seizure (seizure rates) (Male FMR1 knockout mice [5]) | hyperactivity (total distance traveled, 60-minute open field test) (Male FMR1 knockout mice [6]) | freezing response, contextual fear conditioning time course (Male FMR1 knockout mice [7]; 5 minute test, minute 2 and minute 5, Compound A 5 mg/kg oral, FIG. 10) | freezing behavior during Pre-Cue, cued fear conditioning (Male FMR1 knockout mice [7]; ANOVA between treatment groups, FIG. 11) | freezing response during Cue, cued fear conditioning (Male FMR1 knockout mice [7]; FMR1 mice, p=0.06, FIG. 11) | freezing response during Post-Cue, cued fear conditioning (Male FMR1 knockout mice [7]; FMR1 mice, FIG. 11)
1 | 0.116 | 36.3 | 46.1 | > 1.1 | 4.9 | COc1cn(-c2ccc(-n3cccn3)cc2F)nc(-c2ccnn2-c2ccccc2)c1=O [Compound A, 1-[2-fluoro-4-(1H-pyrazol-1-yl)phenyl]-5-methoxy-3-(1-phenyl-1H-pyrazol-5-yl)pyridazin-4(1H)-one] | increased the percentage of no clasping | significantly suppressed the total distance traveled | 4.3 ng/mL and 8.0 ng/mL and 4.4 ng/mL and 4.8 ng/mL and 2.8 ng/mL and 7.0 ng/mL and 3.1 ng/mL | 48.2 ng/g and 38.9 ng/g and 64.5 ng/g and 44.9 ng/g and 43.8 ng/g | increased the latency to seizure | significantly decreased seizure rates | suppresses hyperactivity | increased freezing response | no significant differences | strong trend to increasing freezing response | increased freezing response
2 | – | – | – | – | – | Cc1cccc(C#Cc2ccccc2)n1.Cl [MPEP, 6-Methyl-2-(phenylethynyl) pyridine HCl, reference compound] | – | – | – | – | increased the latency to seizure | significantly decreased seizure rates | – | – | – | – | –
